Earlier results on nine compounds are cited in patent US20050026813A1, “Antibiotic-metal complexes in the detection of gram-positive bacteria and other biological analytes” (priority 2003, published 2005).

Data set [1] has as its system anaerobes and gram-positive aerobes.
Data set [2] concerns Bacillus subtilis ATCC 6633.
Data set [3] has as its system Staph. aureus V573 MR.
For data set [4], the system named is Streptococcus pyogenes CN10.
Data set [5] has as its system Micrococcus luteus.
The subject of data set [6] is gram-positive bacteria. To be noted: in words.
Data set [7] relates to S. aureus SR2030. As to conditions: S. aureus SR2030 in mice, s.c.
In data set [8] the test system is Staphylococcus aureus SR14.
The subject of data set [9] is Streptococcus pyogenes. To be noted: systemic infections in mice.
The conditions of data set [10]: systemic infections in mice, Enterobacter faecalis.
The subject of data set [11] is subcutaneous and urinary tract infections.
For data set [12], the system named is Strep pneumoniae. As to conditions: systemic infections in mice.
Data set [13] relates to Staphylococcus aureus. As to conditions: systemic infections in mice.
In data set [14] the test system is laboratory strains of aerobic and anaerobic gram-positive bacteria.
Data set [15] relates to multi-drug resistant strains of Haemophilus influenzae and Moraxella catarrhalis.
Data set [16] deals with Staphylococcus aureus Oxford.
Data set [17] has as its system Strep. faecalis I.
Data set [18] relates to Staphylococcus aureus 56. To be noted: mice infected with Staphylococcus aureus 56.
The subject of data set [19] is Mycobacterium smegmatis ATCC 607.
For data set [20], the system named is S. aureus Sank 70175.
For data set [21], the system named is Enterococcus faecalis subsp. Liquifaciens S-299.
In data set [22] the test system is Staphylococcus aureus SG511.
Data set [23] has as its system Streptococcus pyogenes 77A.
Data set [24] concerns S. aureus 285.
The test system of data set [25] is S. aureus 503.
Data set [26] deals with Bacillus subtilis.

Turning to `COC(C)C(NC(=O)C1CCCN1C)C1OC(SC)C(O)C(O)C1O` (stereo not shown) [BU-2545, 7-O-methyl-4′-de-n-propyllincomycin], in data set [1], the antibacterial activity result is on record as “exhibits antibacterial activity”.
With `CCCCCCCCCC(=O)NC1C(O[C@@H]2c3cc(Cl)c(c(Cl)c3)Oc3cc4cc(c3OC3OC(CO)C(O)C(O)C3O)Oc3ccc(cc3Cl)[C@@H](O)[C@H]3NC(=O)[C@H](NC)c5ccc(O)c(c5)Oc5cc(O)c(Cl)c(c5)C(NC3=O)C(=O)NC4C(=O)N[C@H]3C(=O)N[C@@H]2C(O)N[C@H](C(=O)O)c2cc(O)cc(O)c2-c2cc3cc(Cl)c2OC2OC(CO)C(O)C(O)C2O)OC(C(=O)O)C(O)C1O` (stereo partly shown) [MM 55268], the MIC in data set [2] is recorded as 2 microgram/ml; in data set [3], 1 microgram/ml; in [4] it was 0.25 microgram/ml; in data set [5], 2 microgram/ml.
As usually defined, the ED50 is the dose at which the effect has come halfway, by size or by number of responders. Turning to `CNC(CC(C)C)C(=O)NC1C(=O)NC(CC(N)=O)C(=O)NCC2C(=O)NC3CC/C=C\C=C(\O)CCc4c(O)cc(O)cc4C(C(=O)O)NCC(=O)C(CC(OC4CC(C)(N)C(O)C(C)O4)CC/C=C\COC4=C(OC5OC(CO)C(O)C(O)C5OC5CC(C)(N)C(O)C(C)O5)C(=CC2C=C4)OC/C=C\CCC1O)NCC3=O` (stereo not shown) [PA-42867], in [6], the “activity against gram-positive bacteria” value is listed as “potent activity”. The ED50 in data set [7] is 2.31 mg/kg. Further, the MIC in data set [8] is on record as 0.78 microgram/ml.
For `CN[C@H](CC(C)C)C(=O)N[C@H]1C(=O)N[C@@H](CC(N)=O)C(=O)N[C@H]2C(=O)NC3C(=O)N[C@@H](C[C@H](OC4C[C@@H](C)C(O)C(C)O4)c4ccc(c(Cl)c4)Oc4cc2cc(c4OC2OC(CO)C(O)C(O)C2O)OC2CC=C(C=C2Cl)C1O)C(=O)N[C@H](C(=O)O)c1cc(O)cc(O)c1-c1cc3ccc1O` (stereo partly shown) [S-3662], the ED50 is listed as 0.49 mg/kg in [9], 0.95 mg/kg in [10], 0.39 mg/kg in [12] and 2.63 mg/kg in data set [13]. In addition, in data set [11], the therapeutic efficacy result is “showed therapeutic efficacy”. Further, the “activity compared with vancomycin” value in [14] is “superior to vancomycin”.
In the case of `C[C@@H]1CN(c2c(F)c(N)c3c(=O)c(C(=O)O)cn(C4CC4)c3c2F)C[C@H](C)N1` [sparfloxacin], in data set [15], the in vitro activity entry is on record as “highly active”.
As to `CN[C@H](CC(C)C)C(=O)N[C@H]1C(=O)N[C@@H](CC(N)=O)C(=O)N[C@H]2C(=O)N[C@H]3C(=O)N[C@H](C(=O)N[C@H](C(=O)O)c4cc(O)cc(O)c4-c4cc3ccc4O)[C@H](O)c3ccc(c(Cl)c3)Oc3cc2cc(c3O[C@@H]2O[C@H](CO)[C@@H](O)[C@H](O)[C@H]2O[C@H]2C[C@](C)(N)[C@H](O)[C@H](C)O2)Oc2ccc(cc2Cl)[C@H]1O` [vancomycin], the MIC in [16] was 2 microgram/ml; in [2] it was 0.25 microgram/ml; in [3], 2 microgram/ml; in data set [4], 1 microgram/ml; in data set [5] it was 2 microgram/ml; in data set [17], 2 microgram/ml.
For the compound “avoparcin alpha, 49-chloro-4B,50-di-O-alpha-D-mannopyranosyl- [Galacardin A]”, the “in vivo efficacy (ED50)” value in data set [18] is on record as 19.0 mg/kg. Further, the MIC is recorded as 25.0 microgram/ml in data set [19], 6.25 microgram/ml in data set [20] and 6.25 microgram/ml in [21].
Take des-methyl-balhimycin: the MIC in data set [22] was 0.1 microgram/ml; in data set [23], 0.05 microgram/ml; in data set [24], 0.1 microgram/ml; in [25] it was 0.05 microgram/ml.
Regarding “vancomycin,22-O-(3-amino-2,3,6-trideoxy-3-C-methyl-alpha-D-arabino-hexopyranosyl)-2′-O-de(3-amino-2,3,6-trideoxy-3-C-methyl-alpha-L-lyxoyranosyl)-10,19-didechloro-2′-O-(6-deoxy-alpha-D-talopyranosyl)- [MM-49721]”, the MIC in [26] was 2 microgram/ml. Also, the “activity against gram-positive bacteria” value in data set [6] is listed as “good activity”.
